Like-named read-outs stand apart in the source and are kept apart here.

For the data set the following is noted: for TAF total degradation impurities %: mixtures with emtricitabine at weight ratio about 1:15, HPLC.

Experimental: In this patent, TAF fumarate crystal form I (prepared according to the method of WO2013025788A1), TAF fumarate crystal form II, TAF fumarate crystal form A and TAF fumarate crystal form B and emtricitabine are compared. The mixture was mixed at a weight ratio of about 1:15, placed at 40° C. and a relative humidity of 75%, and placed open for 21 days. The degradation of TAF was analyzed by HPLC at 0 days and 21 day.

As to `CC(C)OC(=O)[C@H](C)N[P@](=O)(CO[C@H](C)Cn1cnc2c(N)ncnc21)Oc1ccccc1.O=C(O)/C=C/C(=O)O` [TAF fumarate Form II, 9-[(R)-2-[[(S)-[[(S)-1-(isopropoxycarbonyl)ethyl]amino]phenoxyphosphinyl]methoxy]propyl]adenine fumarate], where the note is “compared with TAF hemifumarate crystal form I in combination with emtricitabine”, the “chemical compatibility of TAF with emtricitabine” value was “significantly improve”. As to “Tenofovir alafenamide hemifumarate [TAF fumarate Form I]”, the “TAF total degradation impurities %” value is, setting by setting: (0 day) 0.1%; (21 day, 40° C., relative humidity 75%, placed open) 0.9%.
